From patent US9708314B2, “Heterocyclic amide compound” (NISSAN CHEMICAL INDUSTRIES, LTD., priority 2013, dated 2017)

Columns and labels:
Format in all cases: in vivo
[1] = tested on: Leptochloa chinensis; assay: Test Example 3: herbicidal effect by application to foliage (Wagner pot, water depth 0.1-0.5 cm); conditions: Nineteenth Table; application to foliage; application herbicide amount 320 g/ha
Outline: (§1)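 Wagner pot foliar test: sow, grow 14 d (25–30 °C), spray diluted emulsion at set g/ha, score after 3 wk; 0 ≤5%, 5 ≥90% herbicidal ratio.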

[2] = tested on: Echinochloa crus-galli var. crus-galli; assay: as above; conditions: Nineteenth Table; application to foliage; application herbicide amount 320 g/ha
Outline: as §1

[3] = tested on: Cyperus difformis; assay: as above; conditions: Nineteenth Table; application to foliage; application herbicide amount 320 g/ha
Outline: as §1

[4] = tested on: Monochoria vaginalis; assay: Test Example 2: herbicidal activity, application during weed generation in submerged conditions; conditions: Eighteenth Table; application herbicide amount 320 g/ha
Outline: (§2)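 Alluvial soil in Wagner pots flooded to 4 cm water depth; seeds sown mixed, grown in greenhouse at 25–30 °C. At one- to two-leaf stage, emulsion diluted with water to the set rate (g/ha) was applied to the water surface. Effect scored 0–5 by herbicidal ratio three weeks later.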

[5] = tested on: Echinochloa oryzacola Vasing.; assay: as above; conditions: Eighteenth Table; application herbicide amount 320 g/ha
Outline: as §2

[6] = tested on: Scirpus juncoides; assay: as above; conditions: Eighteenth Table; application herbicide amount 320 g/ha
Outline: as §2

[7] = tested on: transplanted Oryza sativa; assay: Test Example 1: effect on crop, application before weed generation in submerged conditions; conditions: Application herbicide amount 320 g/ha; Seventeenth Table
Outline: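 Alluvial soil in Wagner pots flooded to 4 cm water depth; weed seeds sown and 2.5 leaf stage rice seedlings transplanted. Emulsion diluted in water applied to water surface on sowing day at stated g/ha. Greenhouse 25° C. to 30° C.; effects scored 0–5 by herbicidal ratio after three weeks.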

Compound: COCCOCc1nnc2c(C(=O)Nc3nnco3)ccc(C(F)(F)F)n12 [1-107]
- D (herbicidal effect grade) [1]: 5 (Herbicidal ratio of 90% or more (almost completely withered))
- H (herbicidal effect grade) [2]: 5 (Herbicidal ratio of 90% or more (almost completely withered))
- E (herbicidal effect grade) [3]: 5 (Herbicidal ratio of 90% or more (almost completely withered))
- C (Monochoria vaginalis) herbicidal ratio grade [4]: 4 (Herbicidal ratio of 70% or more and less than 90%)
- A (Echinochloa oryzicola Vasing.) herbicidal ratio grade [5]: 5 (Herbicidal ratio of 90% or more (almost completely withered))
- B (Scirpus juncoides) herbicidal ratio grade [6]: 4 (Herbicidal ratio of 70% or more and less than 90%)
- a: transplanted Oryza sativa (effect on crop grade) [7]: 2 (Herbicidal ratio of 20% or more and less than 40%)

Compound: CCCSc1nnc2c(C(=O)Nc3nnco3)ccc(C(F)(F)F)n12 [1-108]
- D (herbicidal effect grade) [1]: 5 (Herbicidal ratio of 90% or more (almost completely withered))
- H (herbicidal effect grade) [2]: 5 (Herbicidal ratio of 90% or more (almost completely withered))
- E (herbicidal effect grade) [3]: 5 (Herbicidal ratio of 90% or more (almost completely withered))
- C (Monochoria vaginalis) herbicidal ratio grade [4]: 3 (Herbicidal ratio of 40% or more and less than 70%)
- A (Echinochloa oryzicola Vasing.) herbicidal ratio grade [5]: 4 (Herbicidal ratio of 70% or more and less than 90%)
- B (Scirpus juncoides) herbicidal ratio grade [6]: 4 (Herbicidal ratio of 70% or more and less than 90%)
- a: transplanted Oryza sativa (effect on crop grade) [7]: 0 (Herbicidal ratio of 5% or less (almost no effect))

Compound: COCCNc1nnc2c(C(=O)Nc3nnc(C)o3)ccc(C(F)(F)F)n12 [1-109]
- D (herbicidal effect grade) [1]: 5 (Herbicidal ratio of 90% or more (almost completely withered))
- H (herbicidal effect grade) [2]: 5 (Herbicidal ratio of 90% or more (almost completely withered))
- E (herbicidal effect grade) [3]: 3 (Herbicidal ratio of 40% or more and less than 70%)
- C (Monochoria vaginalis) herbicidal ratio grade [4]: 0 (Herbicidal ratio of 5% or less (almost no effect))
- A (Echinochloa oryzicola Vasing.) herbicidal ratio grade [5]: 0 (Herbicidal ratio of 5% or less (almost no effect))
- B (Scirpus juncoides) herbicidal ratio grade [6]: 1 (Herbicidal ratio of 5% or more and less than 20%)
- a: transplanted Oryza sativa (effect on crop grade) [7]: 0 (Herbicidal ratio of 5% or less (almost no effect))

Compound: O=C(Nc1nnco1)c1ccc(C(F)(F)F)n2c(N3CCOCC3)nnc12 [1-110]
- D (herbicidal effect grade) [1]: 5 (Herbicidal ratio of 90% or more (almost completely withered))
- H (herbicidal effect grade) [2]: 5 (Herbicidal ratio of 90% or more (almost completely withered))
- E (herbicidal effect grade) [3]: 5 (Herbicidal ratio of 90% or more (almost completely withered))
- C (Monochoria vaginalis) herbicidal ratio grade [4]: 4 (Herbicidal ratio of 70% or more and less than 90%)
- A (Echinochloa oryzicola Vasing.) herbicidal ratio grade [5]: 4 (Herbicidal ratio of 70% or more and less than 90%)
- B (Scirpus juncoides) herbicidal ratio grade [6]: 3 (Herbicidal ratio of 40% or more and less than 70%)
- a: transplanted Oryza sativa (effect on crop grade) [7]: 4 (Herbicidal ratio of 70% or more and less than 90%)

Compound: CCOc1nnc2c(C(=O)Nc3nnco3)ccc(C(F)(F)F)n12 [1-112]
- D (herbicidal effect grade) [1]: 2 (Herbicidal ratio of 20% or more and less than 40%)
- H (herbicidal effect grade) [2]: 3 (Herbicidal ratio of 40% or more and less than 70%)
- E (herbicidal effect grade) [3]: 1 (Herbicidal ratio of 5% or more and less than 20%)
- C (Monochoria vaginalis) herbicidal ratio grade [4]: 0 (Herbicidal ratio of 5% or less (almost no effect))
- A (Echinochloa oryzicola Vasing.) herbicidal ratio grade [5]: 1 (Herbicidal ratio of 5% or more and less than 20%)
- B (Scirpus juncoides) herbicidal ratio grade [6]: 2 (Herbicidal ratio of 20% or more and less than 40%)
- a: transplanted Oryza sativa (effect on crop grade) [7]: 0 (Herbicidal ratio of 5% or less (almost no effect))

Compound: Cc1nnc(NC(=O)c2ccc(C(F)(F)F)n3c(SCc4ccccc4)nnc23)o1 [1-113]
- D (herbicidal effect grade) [1]: 3 (Herbicidal ratio of 40% or more and less than 70%)
- H (herbicidal effect grade) [2]: 4 (Herbicidal ratio of 70% or more and less than 90%)
- E (herbicidal effect grade) [3]: 3 (Herbicidal ratio of 40% or more and less than 70%)
- C (Monochoria vaginalis) herbicidal ratio grade [4]: 0 (Herbicidal ratio of 5% or less (almost no effect))
- A (Echinochloa oryzicola Vasing.) herbicidal ratio grade [5]: 2 (Herbicidal ratio of 20% or more and less than 40%)
- B (Scirpus juncoides) herbicidal ratio grade [6]: 0 (Herbicidal ratio of 5% or less (almost no effect))
- a: transplanted Oryza sativa (effect on crop grade) [7]: 0 (Herbicidal ratio of 5% or less (almost no effect))

Compound: COc1ccc(CSc2nnc3c(C(=O)Nc4nnc(C)o4)ccc(C(F)(F)F)n23)cc1 [1-114]
- D (herbicidal effect grade) [1]: 4 (Herbicidal ratio of 70% or more and less than 90%)
- H (herbicidal effect grade) [2]: 4 (Herbicidal ratio of 70% or more and less than 90%)
- E (herbicidal effect grade) [3]: 2 (Herbicidal ratio of 20% or more and less than 40%)
- C (Monochoria vaginalis) herbicidal ratio grade [4]: 0 (Herbicidal ratio of 5% or less (almost no effect))
- A (Echinochloa oryzicola Vasing.) herbicidal ratio grade [5]: 0 (Herbicidal ratio of 5% or less (almost no effect))
- B (Scirpus juncoides) herbicidal ratio grade [6]: 1 (Herbicidal ratio of 5% or more and less than 20%)
- a: transplanted Oryza sativa (effect on crop grade) [7]: 0 (Herbicidal ratio of 5% or less (almost no effect))

Compound: Cc1nnc(NC(=O)c2ccc(C(F)(F)F)n3c(SCC4CCCO4)nnc23)o1 (stereo not shown) [1-116]
- D (herbicidal effect grade) [1]: 4 (Herbicidal ratio of 70% or more and less than 90%)
- H (herbicidal effect grade) [2]: 4 (Herbicidal ratio of 70% or more and less than 90%)
- E (herbicidal effect grade) [3]: 0 (Herbicidal ratio of 5% or less (almost no effect))
- C (Monochoria vaginalis) herbicidal ratio grade [4]: 0 (Herbicidal ratio of 5% or less (almost no effect))
- A (Echinochloa oryzicola Vasing.) herbicidal ratio grade [5]: 3 (Herbicidal ratio of 40% or more and less than 70%)
- B (Scirpus juncoides) herbicidal ratio grade [6]: 4 (Herbicidal ratio of 70% or more and less than 90%)
- a: transplanted Oryza sativa (effect on crop grade) [7]: 0 (Herbicidal ratio of 5% or less (almost no effect))

Compound: Cc1nnc(NC(=O)c2ccc(C(F)(F)F)n3c(N4CCSCC4)nnc23)o1 [1-118]
- D (herbicidal effect grade) [1]: 5 (Herbicidal ratio of 90% or more (almost completely withered))
- H (herbicidal effect grade) [2]: 5 (Herbicidal ratio of 90% or more (almost completely withered))
- E (herbicidal effect grade) [3]: 3 (Herbicidal ratio of 40% or more and less than 70%)
- C (Monochoria vaginalis) herbicidal ratio grade [4]: 0 (Herbicidal ratio of 5% or less (almost no effect))
- A (Echinochloa oryzicola Vasing.) herbicidal ratio grade [5]: 2 (Herbicidal ratio of 20% or more and less than 40%)
- B (Scirpus juncoides) herbicidal ratio grade [6]: 3 (Herbicidal ratio of 40% or more and less than 70%)
- a: transplanted Oryza sativa (effect on crop grade) [7]: 2 (Herbicidal ratio of 20% or more and less than 40%)

Compound: Cc1nnc(NC(=O)c2ccc(C(F)(F)F)n3c(N4CC[S+]([O-])CC4)nnc23)o1 [1-119]
- D (herbicidal effect grade) [1]: 5 (Herbicidal ratio of 90% or more (almost completely withered))
- H (herbicidal effect grade) [2]: 5 (Herbicidal ratio of 90% or more (almost completely withered))
- E (herbicidal effect grade) [3]: 2 (Herbicidal ratio of 20% or more and less than 40%)
- C (Monochoria vaginalis) herbicidal ratio grade [4]: 0 (Herbicidal ratio of 5% or less (almost no effect))
- A (Echinochloa oryzicola Vasing.) herbicidal ratio grade [5]: 4 (Herbicidal ratio of 70% or more and less than 90%)
- B (Scirpus juncoides) herbicidal ratio grade [6]: 1 (Herbicidal ratio of 5% or more and less than 20%)
- a: transplanted Oryza sativa (effect on crop grade) [7]: 3 (Herbicidal ratio of 40% or more and less than 70%)

Compound: Cc1nnc(NC(=O)c2ccc(C(F)(F)F)n3c(N4CCS(=O)(=O)CC4)nnc23)o1 [1-120]
- D (herbicidal effect grade) [1]: 5 (Herbicidal ratio of 90% or more (almost completely withered))
- H (herbicidal effect grade) [2]: 5 (Herbicidal ratio of 90% or more (almost completely withered))
- E (herbicidal effect grade) [3]: 5 (Herbicidal ratio of 90% or more (almost completely withered))
- C (Monochoria vaginalis) herbicidal ratio grade [4]: 2 (Herbicidal ratio of 20% or more and less than 40%)
- A (Echinochloa oryzicola Vasing.) herbicidal ratio grade [5]: 3 (Herbicidal ratio of 40% or more and less than 70%)
- B (Scirpus juncoides) herbicidal ratio grade [6]: 3 (Herbicidal ratio of 40% or more and less than 70%)
- a: transplanted Oryza sativa (effect on crop grade) [7]: 3 (Herbicidal ratio of 40% or more and less than 70%)

Compound: COCCN(C)c1nnc2c(C(=O)Nc3nnco3)ccc(C(F)(F)F)n12 [1-121]
- D (herbicidal effect grade) [1]: 5 (Herbicidal ratio of 90% or more (almost completely withered))
- H (herbicidal effect grade) [2]: 5 (Herbicidal ratio of 90% or more (almost completely withered))
- E (herbicidal effect grade) [3]: 5 (Herbicidal ratio of 90% or more (almost completely withered))
- C (Monochoria vaginalis) herbicidal ratio grade [4]: 4 (Herbicidal ratio of 70% or more and less than 90%)
- A (Echinochloa oryzicola Vasing.) herbicidal ratio grade [5]: 4 (Herbicidal ratio of 70% or more and less than 90%)
- B (Scirpus juncoides) herbicidal ratio grade [6]: 4 (Herbicidal ratio of 70% or more and less than 90%)
- a: transplanted Oryza sativa (effect on crop grade) [7]: 3 (Herbicidal ratio of 40% or more and less than 70%)

Compound: CC(C)N(C)c1nnc2c(C(=O)Nc3nnco3)ccc(C(F)(F)F)n12 [1-122]
- D (herbicidal effect grade) [1]: 5 (Herbicidal ratio of 90% or more (almost completely withered))
- H (herbicidal effect grade) [2]: 5 (Herbicidal ratio of 90% or more (almost completely withered))
- E (herbicidal effect grade) [3]: 5 (Herbicidal ratio of 90% or more (almost completely withered))
- C (Monochoria vaginalis) herbicidal ratio grade [4]: 3 (Herbicidal ratio of 40% or more and less than 70%)
- A (Echinochloa oryzicola Vasing.) herbicidal ratio grade [5]: 4 (Herbicidal ratio of 70% or more and less than 90%)
- B (Scirpus juncoides) herbicidal ratio grade [6]: 3 (Herbicidal ratio of 40% or more and less than 70%)
- a: transplanted Oryza sativa (effect on crop grade) [7]: 3 (Herbicidal ratio of 40% or more and less than 70%)
